Measured values taken from article PMC5424254, “Growth Trade-Offs Accompany the Emergence of Glycolytic Metabolism in Shewanella oneidensis MR-1” (Journal of Bacteriology, 2017).

Target: T1, NagK (GlcNAc kinase) (Shewanella oneidensis, UniProt Q8EBK6)
T1 sequence (Q8EBK6 2-300): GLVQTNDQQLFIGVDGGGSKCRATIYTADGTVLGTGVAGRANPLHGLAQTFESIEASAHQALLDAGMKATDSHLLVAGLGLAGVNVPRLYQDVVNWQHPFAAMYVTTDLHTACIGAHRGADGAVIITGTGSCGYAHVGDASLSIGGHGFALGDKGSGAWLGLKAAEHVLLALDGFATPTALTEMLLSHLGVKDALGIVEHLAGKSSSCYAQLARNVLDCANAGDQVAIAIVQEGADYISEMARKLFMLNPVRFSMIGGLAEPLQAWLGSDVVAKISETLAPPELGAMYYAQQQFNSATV
Assay: ADP-Glo kinase assay (luminescence)
Type: biochemical
Conditions: ATP; 40 mM Tris-HCl, 20 mM MgCl2, 0.1 mg/ml BSA; 0.1 to 1 mM substrate

**Q.** With `CC(=O)N[C@H]1C(O)O[C@H](CO)[C@@H](O)[C@@H]1O` (stereo partly shown) [GlcNAc, N-acetylglucosamine] as the molecule, how does the “ADP-Glo kinase assay (luminescence)” value read?
**A.** The value was “NagK is able to phosphorylate glucose in addition to its known substrate, GlcNAc”.
